This is an account of results in patent publication US6716829B2, “Aldosterone antagonist and cyclooxygenase-2 inhibitor combination therapy to prevent or treat inflammation-related cardiovascular disorders” (Pharmacia Corporation, priority 2000, dated 2004).

Several values for one entry are separate records, joined by “and”; a condition that tells them apart may be missing. Equal values may be shown once. Entries after “also recorded” stand apart in the source; their conditions may differ.

Experiment [1] relates to Atrial natriuretic factor (ANP). Nature of the experiment: Assay C: ANP mRNA in left ventricle by TaqMan RT-PCR. In kind it is in vivo, Male Sprague-Dawley rats. The settings on record: for ANP mRNA: arbitrary units relative to cyclophilin expression; for ANP mRNA (AU): mean ± SEM after 30 days of treatment, eplerenone dose 100 mg/kg/day, relative to cyclophilin expression. On the procedure:
(§1) The procedure of Assay B was expanded upon in a further study. […] Myocardial tissue from animals in each treatment group was examined after 7, 14, or 30 days of treatment.
(§2) Potassium chloride supplementation was added to the saline solution in order to prevent the potential hypokalemia associated with aldosterone excess.
(§3) At the time of the surgery, an Alzet 2002 osmotic minipump (Alza Corp., Palo Alto, Calif.) containing either vehicle (9% ethanol/87% propylene glycol/4% dH2O) or 1.0 mg/mL d-aldosterone (Sigma Chemical, St. Louis, Mo.) was inserted subcutaneously at the nape of the neck. Aldosterone was administered at a dose of 0.75 µg/hour. […] Animals were sacrificed from each group (n=8-13) after 7, 14, or 30 days of treatment.
Following exsanguination, hearts and kidneys were isolated, removed, rinsed in cold phosphate-buffered saline, and blotted dry. Kidneys were immediately bifurcated through the long axis with a razor blade and placed in 10% neutral buffered formalin (NBF, Richard-Allen Scientific, Kalamazoo, Mich.). For the hearts, the right ventricle (RV) was cut away from the left ventricle (LV), both ventricles were weighed using a Mettler AE163 balance (Mettler-Toledo, Inc., Hightstown, N.J.), and the RV was placed in 10% NBF. A 2 mm coronal slab of the LV apex was removed and frozen with dry ice/isopentane for analysis of gene expression and the remaining portion of the LV was placed in 10% NBF for fixation. Final wet trimming was completed after 3-4 days fixation where a second 2 mm coronal slab was removed for hydroxyproline analysis and a third 2 mm slab was removed from the equatorial region for histology.
(§4) The fluorogenic 5′-nuclease assay (TaqMan PCR) using Applied Biosystems' 7700 Sequence Detection System (Applied Biosystems, Foster City, Calif.) allowed for real time detection/quantitation of a specific gene by monitoring the increase in fluorescence of a gene-specific, dye-labeled oligonucleotide probe. Probes for target and reference genes were labeled at the 5′-end with a 6-carboxyfluorescein (6FAM) reporter dye and at the 3′-end with a 6-carboxy-N,N,N′,N′-tetramethylrhodamine (TAMRA) quencher dye. When the probe was annealed to the target gene, fluorescence of 6FAM was prevented by the close proximity of TAMRA. The exonuclease activity of Taq polymerase released the dyes from the oligonucleotide probe by displacing the probe from the target sequence resulting in fluorescence excitation in direct proportion to the amount of target message present. Data analysis was performed using the Sequence Detection System software from Applied Biosystems.
Primers and probes were designed using Oligo Primer Analysis Software, Version 5.0 (National Biosciences Inc. (NBI)-Wojciech Rychlik, Cascade, Colo.). Primers were synthesized by Life Technologies (Grand Island, N.Y.) and probes were synthesized by Applied Biosystems. Primer/probe sets were designed from known sequences of rat genes to be analyzed. All target gene values were normalized to a reference gene, constitutively expressed cyclophilin. Primer/probe sets sequences can be found in Table 8
RNA was extracted from frozen (−70° C.) left ventricle (LV) tissue (approximately 10-20 mg) using 1.5 mL RNA-STAT 60 according to manufacturer's instructions (Leedo Medical Laboratories, Inc., Houston, Tex.). Briefly, tissues were homogenized using a tissue homogenizer equipped with a 5 mm probe (Ultra-Turrax T8 Homogenizer, IKA Works, Inc. Wilmington, N.C.). Following homogenization, an equal volume of molecular grade chloroform (Sigma Chemical Co., St. Louis, Mo.) was incubated with periodic mixing for 10 min at room temperature. Samples were centrifuged at 12,000 g for 10 min and RNA was precipitated from the top layer by adding an equal volume of molecular grade isopropanol (Sigma Chemical Co.) followed by an overnight incubation at −80° C.

Experiment [2] concerns monocyte chemoattractant protein-1 (MCP-1). Nature of the experiment: Assay C: MCP-1 mRNA in heart by TaqMan RT-PCR. In kind it is in vivo, Male Sprague-Dawley rats. The following applies: for MCP-1 mRNA (AU): relative to cyclophilin expression, mean ± SEM, eplerenone dose 100 mg/kg/day; for MCP1 (AU): mRNA, individual rats, incl. rat marked * excluded from statistics; for MCP-1 mRNA expression: myocardium, aldosterone + salt, 7, 14, 30 days, eplerenone 100 mg/kg/day. On the procedure:
as §1, §2, §3, §4
All primers and probes were designed using Primer Express software supplied with the 7700 Sequence Detection System and synthesized by Applied Biosystems. Standard curves using 5-fold dilutions of total RNA (from 200 ng to 320 pg) were performed to determine the efficiency of each primer/probe set in the TaqMan reaction prior to the analysis of the experimental samples. Primer/probe sets were designed from known sequences of rat genes to be analyzed. All target gene values were normalized to a reference gene, constitutively expressed cyclophilin. Primer/probe set sequences can be found in Table 8.
RNA was extracted from frozen (−80° C.) rat heart tissue using the Totally RNA Isolation Kit (Ambion, Inc., Austin, Tex.). Tissue was crushed using a stainless steel mortar and pestle, which had been chilled to −80° C. and transferred to a dounce homogenizer (Kontes, Vineland, N.J.) containing 3-10 mL cold denaturation buffer. Tissue was homogenized and transferred to a sterile, 15 mL polypropylene centrifuge tube. An equal volume of phenol:chloroform:isoamyl alcohol (25:24:1) was added, samples were shaken vigorously for 1 min, and incubated on ice for at least 15 min. Samples were centrifuged for 30 min at 10,000g. The aqueous phase was removed, 1/10 volume of a sodium acetate solution (3.0 M NaOAc pH 4.5) was added, samples were shaken or inverted for 10 seconds, and acid-phenol (premixed with isoamyl alcohol):chloroform (5:1, Ambion, Inc.) was added at an volume equivalent to the starting sample volume. Samples were shaken vigorously for 1 min, followed by a 15-min incubation on ice, and centrifuged for 30 min at 10,000 g. The aqueous phase removed and placed in a clean polypropylene tube. An equal volume of isopropanol (Sigma, St. Louis, Mo.) was added and the samples were mixed and incubated overnight at −20° C. The samples were centrifuged for 30 min at 10,000 g, the supernatant was removed and the RNA pellet was resuspended in DNAse/RNAse-free water. Samples were frozen at −80° C. for at least 2 hours, thawed on wet ice, and diluted for quantitation.
Background: In qPCR the cycle at which signal appears reflects the starting amount.

The mark [3] stands for this setting: mean ± SEM after 7 days of treatment, eplerenone 100 mg/kg/day.
The mark [4] stands for this setting: mean ± SEM after 14 days of treatment, eplerenone 100 mg/kg/day.

`COC(=O)[C@@H]1CC2=CC(=O)CC[C@]2(C)[C@@]23O[C@@H]2C[C@@]2(C)[C@@H](CC[C@@]24CCC(=O)O4)[C@H]13` [Eplerenone]: the ANP in experiment [1] (14-day protocol, mRNA, individual rats and group Mean, listed as Eplerenone + aldosterone + salt) is 2.84 AU and 3.22 AU and 6.39 AU and 4.04 AU and 25.90 AU and 5.52 AU and 3.57 AU and 2.29 AU and 8.37 AU and 4.24 AU; in experiment [1] (14-day protocol, mRNA, individual rats and group Mean, listed as Eplerenone + aldosterone + salt, mean), 6.64 AU; in experiment [1] (individual rats and group mean, 7 days of treatment, mRNA relative to cyclophilin, aldosterone + salt, eplerenone 100 mg/kg/day) it was 1.26 AU and 1.81 AU and 0.59 AU and 2.58 AU and 4.48 AU and 4.98 AU and 3.82 AU and 3.59 AU and 0.95 AU and 3.67 AU; in experiment [1] (individual rats and group mean, 7 days of treatment, mRNA relative to cyclophilin, aldosterone + salt, eplerenone 100 mg/kg/day, group mean) it was 2.77 AU. Moreover, the “ANP mRNA upregulation” value is on record as “not after 14 days” in experiment [1] (after 14 days of treatment, eplerenone 100 mg/kg/day) and “significantly reduced” in experiment [1] (after 30 days of treatment, eplerenone 100 mg/kg/day). The “ANP mRNA” value came out at 2.77 ± 0.49 AU in experiment [1] (setting [3]) and 6.64 ± 2.22 AU in experiment [1] (setting [4]). Also, the “ANP mRNA (AU)” value in experiment [1] came out at 9.20 ± 2.44 AU. For the same compound, the “MCP-1 mRNA (AU)” value is 1.56 AU in experiment [2] (after 7 days of treatment), 1.59 AU in experiment [2] (after 14 days of treatment) and 2.29 AU in experiment [2] (after 30 days of treatment). The “MCP1 (AU)” value in experiment [2] (data used for Table 17 (7-day protocol), listed as Eplerenone + aldosterone + salt) was 2.35 AU and 1.60 AU and 0.85 AU and 0.83 AU and 1.74 AU and 2.38 AU and 0.67 AU and 2.03 AU; in experiment [2] (data used for Table 18 (14-day protocol), listed as Eplerenone + aldosterone + salt) it was 1.78 AU and 1.37 AU and 1.27 AU and 1.75 AU and 1.60 AU and 1.24 AU (2×) and 1.92 AU and 1.89 AU and 2.21 AU and 1.20 AU; in experiment [2] (data used for Table 19 (30-day protocol), listed as Eplerenone + aldosterone + salt), 2.11 AU (2×) and 1.70 AU and 2.21 AU and 1.38 AU and 2.10 AU and 2.02 AU and 1.43 AU and 5.58 AU and 8.14 AU. In addition, the “MCP-1 mRNA expression” value in experiment [2] is given as “inhibition; also recorded: significantly reduced”.
For `C[C@]12CCC(=O)C=C1CC[C@@H]1[C@@H]2[C@@H](O)C[C@]2(C=O)[C@@H](C(=O)CO)CC[C@@H]12` [Aldosterone], the ANP in experiment [1] (14-day protocol, mRNA, individual rats and group Mean, listed as Aldosterone + salt) is 4.58 AU and 7.75 AU and 7.34 AU and 4.18 AU and 1.59 AU and 17.81 AU and 6.48 AU and 8.08 AU and 2.51 AU; in experiment [1] (14-day protocol, mRNA, individual rats and group Mean, listed as Aldosterone + salt, mean) it was 6.70 AU; in experiment [1] (30-day protocol, mRNA, individual rats and group Mean, listed as Aldosterone + salt), 23.59 AU and 43.11 AU and 14.83 AU (2×) and 18.90 AU and 23.43 AU and 15.14 AU and 6.77 AU and 20.97 AU; in experiment [1] (30-day protocol, mRNA, individual rats and group Mean, listed as Aldosterone + salt, group mean), 20.17 AU. In addition, in experiment [1] (aldosterone + salt vs vehicle + salt (Tables 11-13)), the “ANP mRNA levels” value is given as “Significant elevations”. For the same compound, the entries for the “ANP mRNA” value in experiment [1] (setting [3]) and in experiment [1] (setting [4]) were 8.72 ± 1.51 AU and 6.70 ± 1.59 AU, respectively. Moreover, the “ANP mRNA (AU)” value in experiment [1] is given as 20.17 ± 3.36 AU. The figures for the “MCP-1 mRNA (AU)” value in experiment [2] (after 7 days of treatment), in experiment [2] (after 14 days of treatment) and in experiment [2] (after 30 days of treatment) were 2.38 AU, 2.76 AU and 4.54 AU, respectively. For the same compound, the “MCP1 (AU)” value in experiment [2] (data used for Table 17 (7-day protocol), listed as Aldosterone + salt) is 2.05 AU and 1.78 AU and 3.06 AU and 2.36 AU and 1.95 AU and 2.33 AU and 3.14 AU and 2.40 AU and 5.17 AU; in experiment [2] (data used for Table 18 (14-day protocol), listed as Aldosterone + salt), 2.42 AU and 1.87 AU and 4.59 AU and 3.19 AU and 3.34 AU and 1.91 AU and 2.50 AU and 2.22 AU and 5.88 AU; in experiment [2] (data used for Table 19 (30-day protocol), listed as Aldosterone + salt), 3.94 AU and 7.19 AU and 1.61 AU and 9.35 AU and 2.30 AU and 2.86 AU. Further, the “MCP-1 mRNA expression” value in experiment [2] is “significantly increased”.
